The target in the assay is N-formyl peptide receptor 2 (Homo sapiens) (UniProt P25090). The experiment in a line: FPRL1 fluorescent ligand binding inhibitors, dose response, selectivity assay for FPR1 ligand SAR project, cell-based, flow cytometry, Ki from IC50 (AID 723). The settings on record: FPRL1-expressing cells, fluorescent ligand binding competition; for Ki: measured here: Ki from IC50.

SMILES strings stand for the structures. Active and inactive are the calls of the source. The rule behind the calls is not given here. Where only a bound is given, the exact number is not on record here.

Sequence of N-formyl peptide receptor 2 (Homo sapiens) (P25090 whole entry, looked up): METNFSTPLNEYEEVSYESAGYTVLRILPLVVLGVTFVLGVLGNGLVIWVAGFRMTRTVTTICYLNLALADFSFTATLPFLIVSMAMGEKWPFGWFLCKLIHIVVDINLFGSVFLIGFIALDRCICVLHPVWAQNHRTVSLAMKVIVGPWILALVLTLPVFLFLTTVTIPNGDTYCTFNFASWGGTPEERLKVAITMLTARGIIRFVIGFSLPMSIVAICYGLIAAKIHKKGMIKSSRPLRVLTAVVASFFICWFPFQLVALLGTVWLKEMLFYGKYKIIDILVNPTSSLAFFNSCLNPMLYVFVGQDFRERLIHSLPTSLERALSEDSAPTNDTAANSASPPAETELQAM

Compound `COc1cccc(/C=C2/C(=O)NN(c3ccc(C)cc3)C2=O)c1` had a Ki of more than 40.3 µM.

Take `COCCN1C(=O)C(=O)/C(=C(/O)c2ccccc2)C1c1ccc(C(C)C)cc1` (stereo not drawn): the IC50 was > 66.7 µM (inactive) and the Ki is more than 40.3 µM.

Compound `COc1ccc(-c2c(C(F)(F)F)oc3cc(OC(=O)c4cccnc4)ccc3c2=O)cc1OC` showed a Ki of more than 40.3 µM.

As for `O=C1NC(c2ccc(Br)cc2)/C(=C(\O)c2ccc(Cl)cc2)C1=O` (stereo not drawn), the IC50 is > 66.7 µM (inactive) and the Ki is more than 40.3 µM.

As for `O=C1C(=O)N(CN2CCOCC2)C(c2ccc(Br)cc2)/C1=C(\O)c1ccccc1` (stereo not drawn), the IC50 is > 66.7 µM (inactive) and the Ki is more than 40.3 µM.

Consider `COCCN1C(=O)C(=O)/C(=C(/O)c2ccccc2)C1c1ccccc1OC` (stereo not drawn), for which the IC50 was > 66.7 µM (inactive) and the Ki was more than 40.3 µM.

The compound `COc1ccc(OC)c(CNC(=O)Cn2c(=O)sc3ccccc32)c1` yielded a Ki of more than 40.3 µM.

For `COc1ccc(/C(O)=C2/C(=O)C(=O)N(CCc3c[nH]c4ccccc34)C2c2ccc(C(C)C)cc2)cc1` (stereo not drawn), the IC50 was > 66.7 µM (inactive) and the Ki was more than 40.3 µM.

Take `Cc1ccc(/C(O)=C2\C(=O)C(=O)N(Cc3cccnc3)C2c2ccc(Br)cc2)cc1` (stereo not drawn): the IC50 is > 66.7 µM (inactive) and the Ki is more than 40.3 µM.

Compound `CCc1cc2c(=O)c(-c3nc4ccccc4n3C)c(C)oc2cc1OC(C)=O` had a Ki of more than 40.3 µM.

As to `O=C(C1=C(O)C(=O)N(CCCn2ccnc2)C1c1cccnc1)c1cc2ccccc2o1` (stereo not drawn), the IC50 is > 66.7 µM (inactive) and the Ki was more than 40.3 µM.

Regarding `O=C(Oc1ccc2c(=O)c(-c3ccccc3Cl)c(C(F)(F)F)oc2c1)c1cccs1`, the Ki was more than 40.3 µM.

On to `CCCC(=O)N(Cc1ccco1)S(=O)(=O)c1cccc2cccnc12`, for which the Ki is more than 40.3 µM.

Consider `CC(C)C(=O)N(Cc1ccco1)S(=O)(=O)c1cccc2cccnc12`, for which the Ki was more than 40.3 µM.

With `COc1ccc(C2C(C(=O)c3cc4ccccc4o3)=C(O)C(=O)N2CCN(C)C)cc1OC` (stereo not drawn), the IC50 is > 66.7 µM (inactive) and the Ki is more than 40.3 µM.

As to `COc1cc(C2C(C(C)=O)=C(O)C(=O)N2c2ccc(Br)cc2)ccc1O` (stereo not drawn), the IC50 is > 66.7 µM (inactive) and the Ki was more than 40.3 µM.

As to `COc1ccc(/C(O)=C2/C(=O)C(=O)NC2c2ccc(OC)cc2OC)cc1` (stereo not drawn), the IC50 was > 66.7 µM (inactive) and the Ki is more than 40.3 µM.

As for `COc1ccc(C2/C(=C(\O)c3ccc(C)cc3)C(=O)C(=O)N2Cc2cccnc2)c(OC)c1` (stereo not drawn), the IC50 is > 66.7 µM (inactive) and the inhibitory constant (Ki) was more than 40.3 µM.

With `COCCN1C(=O)C(=O)/C(=C(/O)c2ccccc2)C1c1cc(OC)ccc1OC` (stereo not drawn), the IC50 was > 66.7 µM (inactive) and the Ki was more than 40.3 µM.

For the compound `CC(C)c1ccc(C2/C(=C(\O)c3ccccc3)C(=O)C(=O)N2Cc2cccnc2)cc1` (stereo not drawn), the IC50 was > 66.7 µM (inactive) and the Ki was more than 40.3 µM.

Regarding `COc1ccc(-c2c(C)[nH]n3c(=O)c4c(nc23)CCCC4)cc1`, the Ki is more than 40.3 µM.

Regarding `Cc1ccc(N2C(=O)C(=O)/C(=C(\O)c3ccccc3)C2c2cccc(F)c2)cc1Br` (stereo not drawn), the IC50 was > 66.7 µM (inactive) and the Ki is more than 40.3 µM.

As for `COc1ccc(OC)c(C2/C(=C(\O)c3ccc(C)cc3)C(=O)C(=O)N2CCC(=O)O)c1` (stereo not drawn), the IC50 was > 66.7 µM (inactive) and the Ki is more than 40.3 µM.

Regarding `COc1ccc(C2C(C(=O)c3ccco3)=C(O)C(=O)N2CCCN2CCOCC2)cc1OC` (stereo not drawn), the IC50 was > 66.7 µM (inactive) and the Ki is more than 40.3 µM.

`O=C(Oc1ccc2c(=O)c(Oc3ccccc3Br)c(C(F)(F)F)oc2c1)c1cccs1`: the Ki is more than 40.3 µM.

For `COc1ccc(C2/C(=C(\O)c3ccccc3)C(=O)C(=O)N2c2cccc(Cl)c2)c(OC)c1` (stereo not drawn), the IC50 was > 66.7 µM (inactive) and the Ki is more than 40.3 µM.

Regarding `COc1cc(C2C(C(=O)c3cc4ccccc4o3)=C(O)C(=O)N2CCN(C)C)ccc1O` (stereo not drawn), the IC50 was > 66.7 µM (inactive) and the Ki is more than 40.3 µM.

On to `CCC(C)(C(=O)NC1CCCCC1)N(Cc1cccs1)C(C)=O` (stereo not drawn), for which the Ki is more than 40.3 µM.

Take `Cc1cccc(C2CC(=O)NC3=C2C(=O)CC(c2cccs2)C3)c1` (stereo not drawn): the Ki is more than 40.3 µM.

`COc1ccc(C2C(C(=O)N3CCCC(C)C3)c3ccccc3C(=O)N2C)cc1` (stereo not drawn): the Ki is more than 40.3 µM.

In turn, `COc1cccc(-c2ccnc3[nH]n(-c4ccccc4)c(=O)c23)c1` showed a Ki of more than 40.3 µM.

For `Cc1ccc(/C(O)=C2\C(=O)C(=O)N(c3nnc(C)s3)C2c2ccc(C(C)C)cc2)cc1` (stereo not drawn), the IC50 was > 66.7 µM (inactive) and the Ki is more than 40.3 µM.

On to `COc1ccc(OC)c(C2/C(=C(\O)c3ccccc3)C(=O)C(=O)N2c2cccnc2)c1` (stereo not drawn), for which the IC50 was > 66.7 µM (inactive) and the Ki was more than 40.3 µM.

`O=C1CC(c2ccccc2C(F)(F)F)C2=C(CC(c3cccs3)CC2=O)N1` (stereo not drawn) yielded a Ki of more than 40.3 µM.

On to `O=C(O)CCCN1C(=O)C(=O)/C(=C(/O)c2ccccc2)C1/C=C/c1ccccc1` (stereo not drawn), for which the IC50 is > 66.7 µM (inactive) and the Ki was more than 40.3 µM.

In the case of `COCCCN1C(=O)C(=O)/C(=C(/O)c2ccccc2)C1c1ccc(O)c(OC)c1` (stereo not drawn), the IC50 is > 66.7 µM (inactive) and the Ki is more than 40.3 µM.

For the compound `COc1ccccc1-c1c(C(F)(F)F)oc2cc(OC(=O)c3ccco3)ccc2c1=O`, the Ki was more than 40.3 µM.

For `O=C(C1=C(O)C(=O)N(CCc2ccccc2)C1c1ccc(Cl)cc1)c1cccs1` (stereo not drawn), the IC50 is > 66.7 µM (inactive) and the Ki was more than 40.3 µM.

For `O=C1C(=O)N(c2ccc(F)cc2)C(c2ccc(Br)cc2)/C1=C(/O)c1ccccc1` (stereo not drawn), the IC50 was > 66.7 µM (inactive) and the Ki is more than 40.3 µM.

`CCCCCCOc1cccc(N2C(=O)C(=O)/C(=C(\O)c3ccccc3)C2c2cccc(F)c2)c1` (stereo not drawn): the IC50 is > 66.7 µM (inactive) and the Ki was more than 40.3 µM.

On to `O=C(C1=C(O)C(=O)N(CCCn2ccnc2)C1c1cccnc1)c1ccco1` (stereo not drawn), for which the IC50 was > 66.7 µM (inactive) and the Ki is more than 40.3 µM.

The compound `Cc1nc2c(-c3ccc(Cl)cc3)c(C(F)(F)F)[nH]n2c(=O)c1Cc1ccccc1` registered a Ki of more than 40.3 µM.

On to `CCCCCCN1C(=O)C(=O)/C(=C(\O)c2ccccc2)C1c1ccc(O)c(OC)c1` (stereo not drawn), for which the IC50 is > 66.7 µM (inactive) and the Ki was more than 40.3 µM.

Regarding `COc1ccc(-c2c(C(F)(F)F)oc3cc(OC(=O)c4ccco4)ccc3c2=O)cc1OC`, the Ki is more than 40.3 µM.

Regarding `Cc1sc2c(c1C)c(=O)n(Cc1ccccc1)c(=O)n2Cc1ccccc1F`, the Ki was more than 40.3 µM.

As to `COCCCN1C(=O)C(=O)/C(=C(/O)c2ccccc2)C1c1ccc(C(C)C)cc1` (stereo not drawn), the IC50 is > 66.7 µM (inactive) and the Ki was more than 40.3 µM.

Regarding `COc1ccc(C2C(C(=O)c3ccco3)=C(O)C(=O)N2CCN2CCOCC2)c(OC)c1` (stereo not drawn), the IC50 is > 66.7 µM (inactive) and the Ki was more than 40.3 µM.

With `O=C(C1=C(O)C(=O)N(CCCN2CCOCC2)C1c1cccnc1)c1cc2ccccc2o1` (stereo not drawn), the IC50 is > 66.7 µM (inactive) and the Ki was more than 40.3 µM.

`O=C(O)C1CCCCC1C(=O)Nc1ccc(Br)cc1` (stereo not drawn) showed a Ki of more than 40.3 µM.

For the compound `COc1ccc(C2C(C(=O)c3cccs3)=C(O)C(=O)N2CCCn2ccnc2)cc1` (stereo not drawn), the IC50 is > 66.7 µM (inactive) and the Ki is more than 40.3 µM.

On to `Cc1cccc(C)c1NC(=O)C(NC(=O)Cc1cccs1)c1ccccc1` (stereo not drawn), for which the Ki is more than 40.3 µM.

Take `COc1ccc(OC)c(C2/C(=C(\O)c3ccccc3)C(=O)C(=O)N2c2ccc(C)c(Cl)c2)c1` (stereo not drawn): the IC50 was > 66.7 µM (inactive) and the Ki was more than 40.3 µM.

Regarding `COc1ccc(C2/C(=C(\O)c3ccccc3)C(=O)C(=O)N2CCCn2ccnc2)c(OC)c1` (stereo not drawn), the IC50 is > 66.7 µM (inactive) and the Ki is more than 40.3 µM.

Consider `N#Cc1c(N/C(=C\C(=O)c2ccccc2)C(=O)O)sc2c1CCC2`, for which the IC50 was > 66.7 µM (inactive) and the Ki was more than 40.3 µM.

In turn, `COc1ccc(-c2c(C(F)(F)F)oc3c(CN4CCOCC4)c(O)ccc3c2=O)cc1OC` had a Ki of more than 40.3 µM.

`CC(=O)C1=C(O)C(=O)N(CCc2c(C)[nH]c3ccccc23)C1c1cccc(F)c1` (stereo not drawn): the IC50 was > 66.7 µM (inactive) and the Ki is more than 40.3 µM.

With `COc1ccc(C2C(C(=O)c3cccs3)=C(O)C(=O)N2CCN2CCOCC2)c(OC)c1` (stereo not drawn), the IC50 is > 66.7 µM (inactive) and the Ki was more than 40.3 µM.
